The record followed here is patent US20260176284A1, “Compounds with Anti-KRAS Mutated Tumor Activity” (Trasveda Ltd., priority 2022, published 2026).

In data set [1] the test system is human pancreatic cancer cells HPAC (carrying KRas G12D mutant protein). The experiment in a line: In vivo pharmacodynamics, subcutaneous xenograft of human pancreatic cancer cells HPAC. As to conditions: NOD/SCID mice, 50 mpk, PO. The method, then: The following materials were used in this experiment: NOD/SCID mice, 6-8 weeks old, female, Jiangsu Ji Cai Yao Kang Biotechnology Co., Ltd.; HPAC cells (carrying KRas G12D mutant protein, ATCC); Captisol (Wuhan Fengyao Tonghui Chemical Products Co., Ltd., Cas #182410-00-0); Sodium acetate (aladdin); MC (sigma, 9004-67-5).
The experiment was carried out as follows: Female NOD/SCID mice aged 6-8 weeks were subcutaneously inoculated with 1-10^7 HPAC cells on the right posterior side of the back, with an inoculation volume of 0.1 mL. When the tumors grew to an average volume of 150 mm^3, the mice were randomly grouped for administration according to the tumor size and body weight. The day of administration was regarded as day 0. The administration was carried out once a day. The test compound was administered by tail vein injection or gavage, with 5 mice in each group at a dose of 10 mg/kg. The control group was administered with an equal volume of the solvent control by tail vein injection or gavage.
During the experiment, the tumor volume and body weight were measured twice a week. The formula for calculating the tumor volume was: Tumor volume (mm^3)=0.5×(tumor major axis×tumor minor axis^2). The average tumor inhibition rate TGI %=[(average tumor volume of the control group−average initial tumor volume of the control group)−(average tumor volume of the administration group−average initial tumor volume of the administration group)]/(average tumor volume of the control group−average initial tumor volume of the control group).

A short description of data set [2]: Mouse pharmacokinetics (IV and PO). As to conditions: 10 mg/kg, male CD-1 mice, PO (gavage), 1 mg/mL at 10 mL/kg, plasma. Type of data set: in vivo. As for the experimental part: The pharmacokinetic properties of the compounds of the present invention were evaluated through a mouse pharmacokinetic experiment.
Male CD-1 mice, aged 6-8 weeks old, were purchased from Zhejiang Vital River Laboratory Animal Co., Ltd.
IV administration group: The compound was formulated into a sodium acetate buffer solution (10 mM sodium acetate solution, adjusted to pH 4.0 with acetic acid) containing 20% Captisol (sulfobutyl β-cyclodextrin) so that the final concentration of each compound was 0.6 mg/mL. The drug formulation was injected into the tail vein of CD-1 mice at an injection volume of 5 mL/kg. After administration, blood samples were collected from the submandibular vein or by other appropriate methods at 5 min, 15 min, 30 min, 1 h, 2 h, 4 h, 6 h, 8 h, and 24 h. The blood samples were centrifuged at a low temperature for 6 minutes, and the plasma was collected and stored at −80° C. for testing. The PO administration group formulated the compound into a solvent of 0.5% Tween 80+99.5% (0.5% MC (400 cp)) or 5% DMSO+95% (0.5% MC (400 cp)) so that the final concentration of each compound was 1 mg/mL. The drug formulation was administered to CD-1 mice by gavage at a volume of 10 mL/kg. After administration, blood samples were collected from the submandibular vein or by other appropriate methods at 15 min, 30 min, 1 h, 2 h, 4 h, 6 h, 8 h, and 24 h. The blood samples were centrifuged at a low temperature for 6 minutes, and the plasma was collected and stored at −80° C. for testing.
10 μL of the plasma sample was taken, and 200 μL of methanol containing an internal standard was added as a precipitating agent to precipitate plasma proteins and extract the compounds to be tested in the plasma. After centrifugation at a low temperature, 10 μL of the supernatant was injected, and the drug blood concentration was analyzed by LC-MS/MS. The pharmacokinetic parameters were calculated using Winnonlin based on the drug concentration data at different time points.

Data set [3] deals with GP2D cells. The experiment in a line: 3D proliferation inhibition of KRAS G12D mutated tumor cells, GP2D. In kind it is cell-based, human. As to conditions: Homo sapiens, GP2d, 3D methylcellulose culture, CTG, 120 hours. From the text: (§1) This experiment evaluated and verified the proliferation inhibitory activity of the representative compounds of the present invention against the following five strains of KRAS-related tumor cells.
(§2) The following materials, reagents and instruments were used in this experiment: Five strains of cells were all from Nanjing Kebai Biotechnology Co., Ltd. (GP2D, CBP60010; HPAC, CBP60539; AsPC-1, CBP60546; KP-4, CBP60541; Panc 04.03, CBP60683); DMEM (Gibco, 11965092); RPMI-1640 (Gibco, SH30809.01); HPAC complete medium (Cobioer, CBP60539M); Fetal bovine serum FBS (Gibco, 10091-148); Insulin (Gibco, 41400045); Methylcellulose (methylcellulose, Sigma, 9004-67-5); Phosphate-buffered saline DPBS (Comning, 21-031-CVC); CellTiter-Glo® Luminescent Cell Viability Assay (Promega, Cat #G7573); 96-well clear flat-bottom black-wall plate (Corning, 3603); EnVision multilabel plate reader (PerkinElmer #2105); CO2 incubator (Thermo Scientific, Model 3 71 Series).
(§3) A sterilized 1% methylcellulose 3D culture medium was prepared in advance. The cells in the logarithmic growth phase were harvested, and a Countstar automatic cell counter based on the principle of the classic trypan blue staining method was used for cell counting and detecting cell viability to ensure that the cell viability was above 90%. The cell concentrations of GP2D, HPAC, AsPC-1, KP-f4, and Panc 04.03 were adjusted so that the final concentration of methylcellulose was 0.65%, and the mixture was allowed to stand after being well-mixed. After there were no visible air bubbles in the cell suspension, 80 μL of the cell suspension was added to each well of a 96-well plate, with a total of 1000-2000 cells. The cells in the 96-well plate were cultured overnight at 37° C., 5% CO2, and 95% humidity.
(§4) Drug Preparation for IC50 Determination: First, a 10 mM DMSO stock solution of each compound was prepared. For the first dilution, using DMSO as the solvent, each compound was first diluted to 5 mM and then serially diluted 3-fold to obtain 9 concentrations, preparing DMSO solutions of each compound at different concentrations. For the second dilution, a 5-fold diluted solution of each compound was prepared by a 1:100 dilution, using the complete medium as the solvent. […]
(§5) The cells in the 96-well plate with the added drugs were further cultured at 37° C. and 5% CO2 for 120 hours, and then a CTG analysis was performed. […] The cell plate was placed at room temperature for 20 minutes to stabilize the luminescence signal. The luminescence value was read, and the data were collected.
(§6) The data were analyzed using GraphPad Prism 9.0 software. Non-linear S-curve regression was used to fit the data to obtain the dose-response curve, and the IC50 value (nM) was calculated accordingly. […]

Data set [4] deals with KP-4 cells. In words: 3D proliferation inhibition of KRAS G12D mutated tumor cells, KP-4. As to conditions: Homo sapiens, KP-4, 3D methylcellulose culture, CTG, 120 hours. In kind it is cell-based.
Source text: as §1, §2, §3, §4, §5, §6

Data set [5] has as its system AsPC-1 cells. The experiment in a line: 3D proliferation inhibition of KRAS G12D mutated tumor cells, AsPC-1. In kind it is cell-based. As to conditions: Homo sapiens, ASPC1, 3D methylcellulose culture, CTG, 120 hours.
Source text: as §1, §2
A sterilized 1% methylcellulose 3D culture medium was prepared in advance. The cells in the logarithmic growth phase were harvested, and a Countstar automatic cell counter based on the principle of the classic trypan blue staining method was used for cell counting and detecting cell viability to ensure that the cell viability was above 90%. The cell concentrations of GP2D, HPAC, AsPC-1, KP-f4, and Panc 04.03 were adjusted so that the final concentration of methylcellulose was 0.65%, and the mixture was allowed to stand after being well-mixed. […]
as §5, §6

The subject of data set [6] is HPAC cells. The experiment in a line: 3D proliferation inhibition of KRAS G12D mutated tumor cells, HPAC. Type of data set: cell-based, human. As to conditions: Homo sapiens, HPAC, 3D methylcellulose culture, CTG, 120 hours.
Source text: as §1, §2, §3, §4, §5, §6

Data set [7] deals with KRAS G12D mutated AGS human gastric adenocarcinoma cells. In words: Proliferation inhibition of KRAS G12D mutant AGS cells, another experiment with similar protocol (includes MRTX1133). As to conditions: Homo sapiens. Type of data set: cell-based. The method, then: In another experiment, using a protocol similar to the one described above, the inhibitory activity of some representative compounds of the present invention against KRAS G12D mutated AGS human gastric adenocarcinoma cells was determined.
The synthesis of compound MRTX1133 was performed according to the method described in J. Med. Chem. 2022, 65, 4, 3123-3133.

The subject of data set [8] is Panc 04.03 cells. The experiment in a line: 3D proliferation inhibition of KRAS G12D mutated tumor cells, Panc 04.03. In kind it is cell-based. As to conditions: Homo sapiens, Panc 04.03, 3D methylcellulose culture, CTG, 120 hours.
Source text: as §1, §2, §3, §4, §5, §6

Data set [9] concerns KRAS-G12D mutated human colon carcinoma cells GP2d. The experiment in a line: Antitumor effect, subcutaneous xenograft of KRAS-G12D mutated human colon carcinoma cells GP2d. In kind it is in vivo. As to conditions: BALB/c nude mice, 10 mg/kg, gavage, twice a day. As for the experimental part: GP2d cells were purchased from Nanjing Kebai Biotechnology Co., Ltd. BALB/c nude mice, female, were purchased from Jiangsu GemPharmatech LLC. GP2d cells were cultured in culture medium containing DMEM and 10% FBS. The cells in the logarithmic growth phase were collected and resuspended in PBS to an appropriate concentration for subcutaneous tumor inoculation in mice. The experimental mice were subcutaneously inoculated on the right posterior side of the back. The inoculation dose of GP2d cells was 1×10^7 cells per mouse, and the cells were resuspended in a 1:1 mixture of PBS and Matrigel (the inoculation volume was 0.1 mL). When the average tumor volume grew to 150 mm^3, the mice were randomly grouped for administration according to the tumor size and body weight. Administration was started immediately after grouping, and the day of administration was regarded as day 0. The administration was carried out twice a day by gavage, at a dose of 10 mg/kg or a solvent control (0.5% Tween 80+99.5% of (0.5% MC (400 cp))). During the experiment, the body weight of the mice and the size of the tumors were measured twice a week.
The formula for calculating the tumor size: Tumor volume (mm^3)=0.5×(long diameter of tumor×(short diameter of tumor)^2).
Relative tumor inhibition rate TGI (%): TGI %=[1−(average tumor volume at the end of administration of the treatment group−average tumor volume at the beginning of administration of the treatment group)/(average tumor volume at the end of administration of the vehicle control group −average tumor volume at the beginning of administration of the vehicle control group)]×100%.

In general, AUC(0-inf) refers to total exposure, with the tail of the curve extrapolated. Low readings indicate less exposure, high ones more exposure. A word on the AUC(0-t): it is exposure summed from dosing to a finite time, without extrapolation to infinity. Low readings indicate less exposure, high ones more exposure. For orientation: half-life means the time needed for the level to fall by half in the phase considered. A higher half-life goes with slow loss. A word on the IC50: it is the point on the concentration scale where inhibition reaches its midpoint. Lower therefore signals greater potency in that assay. `C#Cc1c(F)ccc2cc(O)cc(-c3ncc4c(N5C[C@H]6CC[C@@H](C5)N6)nc(OC[C@]5(C)CN(C)CC/C5=C\F)nc4c3F)c12` [Example 103, 4-(4-((1R,5S)-3,8-diazabicyclo[3.2.1]octan-3-yl)-8-fluoro-2-(((S,E)-4-(fluoromethylene)-1,3-dimethylpiperidin-3-yl)methoxy)pyrido[4,3-d]pyrimidin-7-yl)-5-ethynyl-6-fluoronaphthalen-2-ol]: the “Tumor volume (mm3) (Day 20)” value in data set [1] (BID × 21) is 77 mm3. The “TGI (%)” value in data set [1] (BID × 21, Day 20) was determined as 112%. Further, the AUC(0-inf) in [2] was 704 ng·h/mL. Moreover, the AUC(0-t) in data set [2] is 653 ng·h/mL. The same compound showed a half-life in [2] of 8.15 h. The IC50 in [3] amounted to 0.42 nM; in [4], 6.92 nM; in data set [5], 2.09 nM; in data set [6], 1.44 nM; in data set [7] it was 4 nM; in [8], 2.12 nM.

As to `[2H]C([2H])([2H])N1CC[C@H](C(F)F)[C@](C)(C([2H])([2H])Oc2nc(N3CC4CCC(C3)N4)c3cc(C(F)(F)F)c(-c4cccc5sc(N)c(C#N)c45)c(F)c3n2)C1` (single isomer, unassigned) [Example 321-1], the IC50 in data set [3] was 0.43 nM; in data set [4], 4.74 nM; in data set [5], 1.38 nM; in [6], 5.38 nM; in data set [8], 1.36 nM. Also, the “Tumor volume (mm3) (Day 21)” value in data set [9] was 70 mm3. Also, the “TGI (%)” value in [9] (Day 21) worked out at 109%.
